Test results: paper PMC9825896, “Discovery of an L‐like Configuration for 3’‐Fluoro‐5’‐norcarbonucleoside Phosphonates as Potent Anti‐HIV Agents” (Chemmedchem, 2022)
Read-outs that look alike come from different tables or passages of the source.

Tests used:
[1] = system: HIV‐1 LAI; experiment: Anti-HIV-1 activity in T CD4+ H9 cells, LAI reference strain; assay type: cell-based; settings: Human immunodeficiency virus 1, mean from three experiments
Method: (§1) Peripheral blood mononuclear cells (PBMC) from healthy donors were isolated and stimulated for 3 days with […] of phytohemagglutinin‐P (PHA‐P, Sigma) and 5 IU/mL of recombinant human interleukin‐2 (rHuIL‐2, Roche). PBMC were growth under CO2 in a humid atmosphere at 37 °C in RPMI‐1640 GlutaMAX medium supplemented with antibiotics (penicillin, streptomycin, neomycin), 10 % fetal calf serum (FCS, previously inactivated by heat) and 10 UI/mL of rHuIL‐2. The HIV‐1 LAI strain was previously described.[19] Resistant viral strains are from the NIH AIDS Research & Reference Reagent Program (HIV‐1–52534‐2, HIV‐1–56252‐1, HIV‐1–71361‐1, and HIV‐1–7324‐1) carry mutations in RT.[16]
(§2) PHA‐P activated PBMCs (1.5×10^5 cells) were pre‐treated for 30 min by increasing concentrations of the various compounds to be tested and then infected with […] infectious tissue culture doses 50 % (TCID50) of the HIV‐1‐LAI. Supernatants were collected at day 7 post infection and stored at ‐ 20 °C. Viral replication was measured by quantifying reverse transcriptase activity in cell culture supernatants by the use of Lenti kit RT (Cavidi). Cytotoxicity of the compounds was evaluated in uninfected PHA‐P PBMC by MTT assay (Promega) on day 7. Experiments were performed in triplicate and repeated with another blood donors. Data analyses were performed using SoftMax® Pro 4.6 software (Molecular Devices). Percent of inhibition of RT activity or cell viability were plotted versus compound concentration and fitted with quadratic curves to determine 50 % effective concentration (EC50) and 50 % cytotoxic concentration (CC50). The viral resistant strains were amplified and the viral stocks titrated using cells of the H9 line.[20] More specifically, with regard to the antiviral test, the cells were distributed in the wells of 96‐well microplates at the rate of 50,000 cells per well. They were then pretreated for 30 minutes with increasing concentrations of the various compounds to be tested and then infected with 125 TCID50 of the various resistant strains. Seven and 14 days after infection, culture supernatants were collected and frozen at −20 ° C until measurement of viral replication via quantification of the enzymatic activity of the TI. The EC50 was calculated as previously described. A possible cytotoxicity of the molecules towards the cells of the H9 line was assessed by microscopic observation throughout the cell cultures.

[2] = system: HIV‐1‐56252‐1; experiment: Anti-HIV-1 activity in T CD4+ H9 cells, resistant strain 56252-1; assay type: cell-based; settings: Human immunodeficiency virus 1; strain 56252‐1, T CD4+ H9 cells, mean from three experiments
Method: as §1, §2

[3] = system: HIV‐1‐7324‐1; experiment: Anti-HIV-1 activity in T CD4+ H9 cells, resistant strain 7324-1; assay type: cell-based; settings: Human immunodeficiency virus 1; strain 7324‐1, T CD4+ H9 cells, mean from three experiments
Method: as §1, §2

[4] = system: HIV‐1‐52534‐2; experiment: Anti-HIV-1 activity in T CD4+ H9 cells, resistant strain 52534-2; assay type: cell-based; settings: strain 52534‐2, T CD4+ H9 cells; for EC50: Human immunodeficiency virus 1, mean from three experiments
Method: as §1, §2

[5] = system: HIV‐1‐71361‐1; experiment: Anti-HIV-1 activity in T CD4+ H9 cells, resistant strain 71361-1; assay type: cell-based; settings: Human immunodeficiency virus 1, H9
Method: as §1, §2

[6] = system: human peripheral blood mononuclear cells (PBMC); design: method as in earlier work; settings: ref 4b, cited from earlier work; for CC50: read-out: CC50, cytotoxic concentration of drug required to reduce cell growth by 50 %
[7] = system: HIV‐1 LAI strain; settings: ref 4b, cited from earlier work; for EC50: read-out: EC50, effective concentration of drug required to reduce viral replication by 50 %, HIV-1 LAI in human PBMC; for SI = CC50/EC50: HIV-1 LAI in PBMC
[8] = system: HIV‐1 LAI strain; experiment: Anti-HIV-1 LAI activity in PHA-P activated PBMC (RT activity in supernatants); assay type: cell-based; settings: for EC50: read-out: EC50, effective concentration of drug required to reduce viral replication by 50 %
Method: as §1, §2

[9] = Cytotoxicity in uninfected PHA-P PBMC by MTT assay; assay type: cell-based, human; settings: human
Method: as §1, §2

[10] = system: human peripheral blood mononuclear cells (PBMC); experiment: Cytotoxicity in uninfected PHA-P PBMC by MTT assay; assay type: cell-based
Method: as §1, §2

[11] = Human immunodeficiency virus 1, 168 h, HIV-1 LAI in human PBMC, day 7 post infection, mean from 3 blood donors
[12] = uninfected PBMC, MTT, day 7, mean from 3 blood donors, read-out: CC50, cytotoxic concentration of drug required to reduce cell growth by 50 %
[13] = Human immunodeficiency virus 1, PBMC, 168 h

| SMILES | EC50 [1] [nM] | EC50 [2] [nM] | EC50 [3] [nM] | EC50 [4] [nM] | EC50 [5] [nM] | CC50 [6] [nM] | cytotoxicity (in words) [6] | EC50 [7] [nM] | SI = CC50/EC50 ([8]; HIV-1 LAI in PBMC) | EC50 [8, 11] [nM] | CC50 at 7 days [9, 12] [nM] | cytotoxicity (in words) ([10]; PBMC) | EC50 [8, 13] [nM] | CC50 at 7 days [9] [nM] | SI = CC50/EC50 [7] | SI = CC50/EC50 ([7]; listed as Tenofovir) | anti‐HIV‐1 activity, fold greater than that of the D‐like enantiomer ([8]; HIV-1 LAI in PBMC, EC50 ratio versus D-like bis(POM) prodrug) [fold] | anti‐HIV‐1 activity, fold greater than Tenofovir ([8]; HIV-1 LAI in PBMC, EC50 ratio versus Tenofovir) [fold] | cytotoxicity (in words) [10] | antiviral activity (in words) [4] |
| --- | --- | --- | --- | --- | --- | --- | --- | --- | --- | --- | --- | --- | --- | --- | --- | --- | --- | --- | --- | --- |
| Nc1ncnc2c1ncn2[C@H]1C=C(F)[C@@H](OCP(=O)(O)O)C1 (racemic) [(±)‐1] | 660 | 10000 | 170 | ≥ 10000 | 3730 | ≥ 10000 | without additional cytotoxicity | 880 |  |  |  |  |  |  |  |  |  |  |  |  |
| Nc1ncnc2c1ncn2[C@H]1C=C(F)[C@@H](OCP(=O)(O)O)C1 [(+)‐1] |  |  |  |  |  |  |  |  | ≥2.32 | 4300 | ≥ 10000 | No cytotoxicity |  |  |  |  |  |  |  |  |
| CC(C)(C)C(=O)OCOP(=O)(CO[C@H]1C[C@@H](n2cnc3c(N)ncnc32)C=C1F)OCOC(=O)C(C)(C)C [(+)‐9, bis‐(Pivaloyloxymethyl)‐((1’S,4’R)‐4‐(6‐amino‐9H‐purin‐9‐yl)‐2‐fluorocyclopent‐2‐en‐1‐yl)oxymethyl‐phosphonate] | 1850 | 960 | 240 | ≥ 10000 | 680 |  |  |  |  |  |  |  | 510 | ≥ 10000 |  |  |  |  |  |  |
| C[C@H](Cn1cnc2c(N)ncnc21)OCP(=O)(O)O [(R)‐PMPA, reference compound] | 130 | 1650 | 100 | 6100 | 100 | ≥ 10000 |  | 1100 |  |  |  |  |  |  | ≥9.1 | 9.1 |  |  |  |  |
| Nc1ncnc2c1ncn2[C@@H]1C=C(F)[C@H](OCP(=O)(O)O)C1 [(−)‐1] | 330 | 690 | 420 | ≥ 10000 | 900 |  |  |  | ≥52.6 | 190 | ≥ 10000 | No cytotoxicity |  |  |  |  |  |  |  |  |
| CC(C)(C)C(=O)OCOP(=O)(CO[C@@H]1C[C@H](n2cnc3c(N)ncnc32)C=C1F)OCOC(=O)C(C)(C)C [(−)‐9, bis‐(Pivaloyloxymethyl)‐((1’R,4’S)‐4‐(6‐amino‐9H‐purin‐9‐yl)‐2‐fluorocyclopent‐2‐en‐1‐yl)oxymethyl‐phosphonate] | 110 | 90 | 10 | 580 | 110 |  |  |  |  |  |  |  | 63 | 5200 |  |  | 8 | 17 | some cytotoxicity | remains significantly active |
